Experimental data taken from patent US20010049373A1, “Materials and methods for killing nematodes and nematode eggs” (priority 2000, published 2001).

Tests used:
Caenorhabditis elegans [1] = test: C. elegans L1 larvae dose-response, 5 day visual viability score (Examples 2 and 7); format: in vivo; parameters: key: Dead: only stiff L1s (no movement); Dead (L4): worms are dead, but at a later larval stage; majority of worms are L1 (based on size); majority of worms are L2 (based on size); majority of worms are L3 (based on size); majority of worms are L4 (based on size); AD: majority of worms are adult; #AD: 5 adult worms or less; B!: sterile (0-25 progeny); B: low broodsize (25-100 progeny); ˜B: moderate broodsize (100-250 progeny); <: reduced broodsize (250-500 progeny); OK: no effect (˜1000+ progeny); settings: day 5, Table 3; for 5 Day Visual Score V6: 0.3 μM (procedure of Example 2); for 5 Day Visual Score V5: 0.9 μM (procedure of Example 2); for 5 Day Visual Score V4: 2.6 μM (procedure of Example 2); for 5 Day Visual Score V3: 7.8 μM (procedure of Example 2); for 5 Day Visual Score V2: 23.3 μM (procedure of Example 2); for 5 Day Visual Score V1: 70 μM (procedure of Example 2)
Protocol: Caenorhabditis elegans adults were grown on Nematode Growth Medium (NGM) until they produced eggs, then the adults were removed.
The eggs were allowed to hatch, and the L1 larvae collected. See The Neniatode Caenorhabditis elegans (1988) Cold Spring Harbor Laboratory Press. Using a Matrix Programmable Pipette, the L1s were distributed into 96-well tissue culture plates, 20 L1 in 50 μl NGM per well. Antibiotic/Antimyotic was added to each well, and 1% by weight E. coli strain HB101. The subject anthelmintic compounds were stored at 5 mM in 100% DMSO. 0.7 μl of compounds 1-31 were added to the left-most column of wells to yield a final concentration of 70 μM in 1.4% DMSO, with 1.4% DMSO only as the control. The compounds were then subjected to 5 more 3-fold dilutions from left to right to yield 6 column concentrations of 70 μM, 23.3 μM, 7.8 μM, 2.6 μM, 0.9 μM, and 0.3 μM. Plates were stored in air-tight Rubbermaid plastic boxes at 20° C. The nematodes had cleared all control wells by day 4, and nematode viability was scored by visual examination under a 100× dissecting microscope on day 5. A visual viability scoring system was used as follows:
If several classes of worms exist in a well, then all classes are scored. If adults are present, then the brood score is also recorded. Thus, “L1/L2” would mean a mixture of L1's and L2's are present in the well. “L4/#AD/B” would mean that a mixture of L4's and adults are resent in the well. The “#AD” would mean that there are 6 or less adults, and the “B” would mean that there were 100 progeny or less.
Column VI has a compound concentration of 70 μM with sequential 3-fold dilutions reported in columns V2, V3, V4, V5, and V6, respectively, such that the V6 concentration was 0.3 μM.
(§1) The nematicidal activity of anthelmintic Compositions 48-118 were determined in accordance with the procedure outlined in Example 2.

Caenorhabditis elegans [2] = test: HTS runs (initial and follow-up): mOD, % Run and visual score (Table 3); format: in vivo; parameters: key to Initial HTS Run Visual Score / Follow-up HTS Run Visual Score: Dead: only stiff L1s (no movement); Dead (L4): worms are dead, but at a later larval stage; majority of worms are L1 (based on size); majority of worms are L2 (based on size); majority of worms are L3 (based on size); majority of worms are L4 (based on size); AD: majority of worms are adult; #AD: 5 adult worms or less; B!: sterile (0-25 progeny); B: low broodsize (25-100 progeny); ˜B: moderate broodsize (100-250 progeny); <: reduced broodsize (250-500 progeny); OK: no effect (˜1000+ progeny)
Protocol: as §1

Compound	5 Day Visual Score V6 (Caenorhabditis elegans [1])	5 Day Visual Score V5 (Caenorhabditis elegans [1])	5 Day Visual Score V4 (Caenorhabditis elegans [1])	5 Day Visual Score V3 (Caenorhabditis elegans [1])	5 Day Visual Score V2 (Caenorhabditis elegans [1])	Follow-up HTS Run % Run (Caenorhabditis elegans [2])	Follow-up HTS Run Visual Score (Caenorhabditis elegans [2])	Follow-up HTS Run mOD (Caenorhabditis elegans [2])	Initial HTS Run % Run (Caenorhabditis elegans [2])	Initial HTS Run Visual Score (Caenorhabditis elegans [2])	Initial HTS Run mOD (Caenorhabditis elegans [2])	5 Day Visual Score V1 (Caenorhabditis elegans [1])
CCC(C)Nc1cc(Oc2ccc3oc4ccccc4c3c2)ncn1 (stereo not shown) [AKC 349]	OK (no effect (˜1000+ progeny))	OK (no effect (˜1000+ progeny))	OK (no effect (˜1000+ progeny))	#AD/˜B	OK (no effect (˜1000+ progeny))	103%	B (low broodsize (25-100 progeny))	139 mOD	127%	2AD/B!	247 mOD	–
CCN(C)c1cc(Oc2ccc3ccccc3c2)ncn1 [AKC 350]	OK (no effect (˜1000+ progeny))	OK (no effect (˜1000+ progeny))	OK (no effect (˜1000+ progeny))	–	L1	101%	Dead	136 mOD	126%	Dead	245 mOD	L1
Fc1ccc(F)c(CNc2cc(Oc3cccc(Cl)c3)ncn2)c1 [AKC 354]	< (reduced broodsize (250-500 progeny))	OK (no effect (˜1000+ progeny))	< (reduced broodsize (250-500 progeny))	#AD/˜B	–	108%	B (low broodsize (25-100 progeny))	146 mOD	137%	1AD/B	267 mOD	Dead
FC(F)(F)c1ccc(CNc2cc(Oc3cccc(Cl)c3)ncn2)cc1 [AKC 356]	< (reduced broodsize (250-500 progeny))	OK (no effect (˜1000+ progeny))	OK (no effect (˜1000+ progeny))	–	Dead	122%	L2	165 mOD	139%	Dead	272 mOD	Dead
COc1ccc(Oc2cc(NCc3ccc(C(F)(F)F)cc3)ncn2)cc1 [AKC 357]	OK (no effect (˜1000+ progeny))	OK (no effect (˜1000+ progeny))	OK (no effect (˜1000+ progeny))	–	–	98%	L4/AD/B!	132 mOD	115%	3AD/B	224 mOD	Dead
Fc1ccc(Oc2cc(NCc3ccc(C(F)(F)F)cc3)ncn2)cc1 [AKC 358]	OK (no effect (˜1000+ progeny))	OK (no effect (˜1000+ progeny))	OK (no effect (˜1000+ progeny))	–	Dead	113%	L3-Dead L3	153 mOD	129%	Dead	252 mOD	Dead
FC(F)(F)c1ccc(CNc2cc(Oc3ccccc3Cl)ncn2)cc1 [AKC 360]	OK (no effect (˜1000+ progeny))	OK (no effect (˜1000+ progeny))	OK (no effect (˜1000+ progeny))	OK (no effect (˜1000+ progeny))	Dead	112%	L4/AD/B!	151 mOD	139%	1AD/B!-No P	272 mOD	Dead
CN(c1cc(Oc2ccc(-c3ccccc3)cc2)ncn1)C1CCCCC1 [AKC 363]	OK (no effect (˜1000+ progeny))	OK (no effect (˜1000+ progeny))	OK (no effect (˜1000+ progeny))	˜B (moderate broodsize (100-250 progeny))	< (reduced broodsize (250-500 progeny))	122%	Dead	165 mOD	141%	Dead	275 mOD	Dead
Clc1cccc(CNc2cc(Oc3cccc(Cl)c3)ncn2)c1 [AKC 364]	OK (no effect (˜1000+ progeny))	OK (no effect (˜1000+ progeny))	< (reduced broodsize (250-500 progeny))	˜B (moderate broodsize (100-250 progeny))	–	108%	L4/AD/B!	146 mOD	121%	4AD/˜B	236 mOD	Dead(L2/L3)
Fc1ccc(Oc2cc(NCc3ccccc3F)ncn2)cc1 [AKC 367]	OK (no effect (˜1000+ progeny))	OK (no effect (˜1000+ progeny))	< (reduced broodsize (250-500 progeny))	< (reduced broodsize (250-500 progeny))	< (reduced broodsize (250-500 progeny))	91%	B (low broodsize (25-100 progeny))	123 mOD	123%	2AD/B	239 mOD	L1
Fc1ccc(Oc2cc(NCc3cc(F)cc(F)c3)ncn2)cc1 [AKC 369]	OK (no effect (˜1000+ progeny))	OK (no effect (˜1000+ progeny))	OK (no effect (˜1000+ progeny))	< (reduced broodsize (250-500 progeny))	–	94%	B (low broodsize (25-100 progeny))	127 mOD	115%	1AD/B	225 mOD	Dead
CC(C)(C)OC(=O)N1CCN(c2cc(Oc3ccc(F)cc3)ncn2)CC1 [AKC 373]	OK (no effect (˜1000+ progeny))	OK (no effect (˜1000+ progeny))	OK (no effect (˜1000+ progeny))	–	–	83%	B (low broodsize (25-100 progeny))	112 mOD	132%	–	257 mOD	L4
CC(C)(C)OC(=O)N1CCN(c2cc(Oc3ccccc3Cl)ncn2)CC1 [AKC 374]	OK (no effect (˜1000+ progeny))	OK (no effect (˜1000+ progeny))	OK (no effect (˜1000+ progeny))	OK (no effect (˜1000+ progeny))	–	114%	–	154 mOD	139%	L3-Dying	271 mOD	Dead(L2/L3)
